Experimental data reported in patent US20070208063A1, “Imidazole-based compounds, compositions comprising them and methods of their use” (priority 2006, published 2007).

Experiments:
[1] = test system: lymphocytes / mature T cells in the thymus; settings: administration to rats and mice; cited from earlier work
immunological effects = settings: studies in humans; Thuvander 1994, Houben 1992; cited from earlier work
circulating lymphocytes = assay: Effects on lymphocytes in mice: whole blood counts (CBC); assay type: in vivo, mice (F1 hybrids of 129/B6 strain)
Experimental: Unless otherwise indicated, the term “circulating lymphocyte reduction factor” or “CLRF” means the decrease in the number of circulating lymphocytes in mice caused by oral administration of a single dose of a compound at 100 mg/kg, as determined by the method described in the Examples, below. Compounds were administered by oral gavage or in drinking water. For oral dosing experiments, compounds were resuspended from crystals at 10 mg/ml in vehicle (e.g., water). Mice (F1 hybrids of 129/B6 strain) were gavaged with a single 100 mg/kg dose of compound (equivalent to 100 mpk of the free base for each compound) or a vehicle-only control, and returned to their cages. Mice were anesthetized using isofluorane eighteen hours after dosing and tissues were collected for analysis as described below. For drinking water studies, compounds were dissolved at 50 mg/L in acidified water (pH=2.8) containing 10 g/L glucose. The mice were allowed free access to compound-containing water (or glucose solution as a control) for 72 hours. At the end of 72 hours, tissues were collected for analysis. CBC measurements were obtained as follows. Mice were anesthetized with isofluorane and blood was collected from the retroorbital plexus into EDTA blood collection tubes (Capiject-MQK, Terumo Medical Corp., Elkton, Md.). […]

S1P lyase = molecular target: T1, S1P lyase (Mus musculus, UniProt Q8R0X7); settings: when administered to mice; Schwab et al. 2005; cited from earlier work
T1 construct: host or cells: mice (in vivo)
T1 sequence (Q8R0X7 1-568): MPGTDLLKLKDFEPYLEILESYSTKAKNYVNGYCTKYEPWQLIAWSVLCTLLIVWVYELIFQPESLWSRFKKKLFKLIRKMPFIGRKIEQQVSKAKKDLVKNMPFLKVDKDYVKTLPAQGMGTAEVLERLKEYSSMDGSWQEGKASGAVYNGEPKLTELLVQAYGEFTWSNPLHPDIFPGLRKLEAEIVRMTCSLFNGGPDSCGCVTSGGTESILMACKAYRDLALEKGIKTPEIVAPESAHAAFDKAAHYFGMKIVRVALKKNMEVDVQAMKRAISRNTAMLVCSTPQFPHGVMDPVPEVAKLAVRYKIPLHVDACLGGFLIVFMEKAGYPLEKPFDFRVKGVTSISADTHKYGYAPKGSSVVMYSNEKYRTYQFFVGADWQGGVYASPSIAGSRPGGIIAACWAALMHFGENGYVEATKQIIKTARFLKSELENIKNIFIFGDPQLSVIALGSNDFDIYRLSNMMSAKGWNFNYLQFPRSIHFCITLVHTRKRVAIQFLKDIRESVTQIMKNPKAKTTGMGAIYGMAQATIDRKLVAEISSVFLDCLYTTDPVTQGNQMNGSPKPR

[2] = test system: lymphocyte egress from the thymus; assay: Effects on lymphocytes in mice: FACS of thymus T cells; assay type: in vivo, mice (F1 hybrids of 129/B6 strain); settings: administered in drinking water; FIGS. 1-3
Experimental: Compounds were administered by oral gavage or in drinking water. For oral dosing experiments, compounds were resuspended from crystals at 10 mg/ml in vehicle (e.g., water). Mice (F1 hybrids of 129/B6 strain) were gavaged with a single 100 mg/kg dose of compound (equivalent to 100 mpk of the free base for each compound) or a vehicle-only control, and returned to their cages. Mice were anesthetized using isofluorane eighteen hours after dosing and tissues were collected for analysis as described below. For drinking water studies, compounds were dissolved at 50 mg/L in acidified water (pH=2.8) containing 10 g/L glucose. The mice were allowed free access to compound-containing water (or glucose solution as a control) for 72 hours. At the end of 72 hours, tissues were collected for analysis. Flow cytometry (FACS) measurements were obtained as follows. Twenty five μl whole blood was lysed by hyoptonic shock, washed once in 2 ml FACS wash buffer (FWB: PBS/0.1% BSA/0.1% NaN3/2 mM EDTA) and stained for 30 minutes at 4° C. in the dark with a combination of fluorochrome-conjugated antibodies diluted in 50 μl FWB. After staining, the cells were washed once with 2 ml FWB and resuspended in 300 μl FWB for acquisition. […] Samples were analyzed using a FACSCalibur flow cytometer and CellQuest Pro software (Becton Dickinson Immunocytometry Systems, San Jose, Calif.). […]

Row | Compound | lymphopenia [1] | mature T cells in the thymus [1] | immunological effects (immunological effects) | effect on circulating lymphocytes (circulating lymphocytes) | S1P lyase activity (S1P lyase) | effect on lymphocyte egress from the thymus [2]
1 | CC(=O)c1nc(C(O)C(O)C(O)CO)c[nH]1 (stereo not shown) [THI, 2-acetyl-4-tetrahydroxybutylimidazole] | induces lymphopenia | causes the accumulation of mature T cells in the thymus | no immunological effects | capable of reducing circulating lymphocytes in mice | inhibits S1P lyase activity | diminished lymphocyte egress from the thymus
2 | CC(=O)c1nc(C)c([C@@H](O)[C@H](O)[C@H](O)CO)s1 [Compound 2, 1-(4-methyl-5-((1S,2R,3R)-1,2,3,4-tetrahydroxybutyl)thiazol-2-yl)ethanone] | – | – | – | little or no effect on circulating lymphocytes | – | –
